According to article PMC6214108, “Synthesis and In Vitro Antitumor Activity of Novel Bivalent β-Carboline-3-carboxylic Acid Derivatives with DNA as a Potential Target” (International Journal of Molecular Sciences, 2018):

Tests used:
Format in all cases: cell-based
A549 cells [1] = assay: Cell apoptosis assay, Annexin V-FITC/PI dual staining, flow cytometry; conditions: 48 h; for Percentage of Cell Apoptosis (%) Normal Living Cell: lower left quadrant in Figure 3; for Percentage of Cell Apoptosis (%) Early Apoptosis: lower right quadrant in Figure 3
Procedure: The cell apoptosis was evaluated using Annexin V-FITC/PI dual staining (Beyotime, China). A549 cells (1 × 10^6 cells per well) seeded into 6-well plates (JET, Guangzhou, China) were incubated with DMEM containing various concentrations (2, 4, and 8 μM) of β-carbolines (4B, 6i, 4D, and 6u) for 48 h at 37 °C and 5% CO2. The cells in the supernatant and adherent were collected and washed with PBS, and then the cells were stained with Annexin V-FITC and PI for 20 min at r.t. The samples were analyzed using flow cytometry (Becton Dickinson, San Jose, CA, USA).
Figure 3 The cell apoptosis was detected by flow cytometry using Annexin V-FITC/PI dual staining. A549 cells were treated with 4B, 6i, 4D, and 6u at 2, 4, and 8 μM for 48 h, and then stained with Annexin V-FITC and PI for 15 min at 37 °C. The proportions of the living cells, the early apoptosis cells, and the late apoptotic cells were analyzed by FCS Express 5.0. TEXT PRINTED IN THE PICTURE: 4B: 9.00% (2 μM); 11.89% (2 μM); 75.93% (2 μM); 3.18% (2 μM); 8.92% (4 μM); 27.14% (4 μM); 48.59% (4 μM); 15.35% (4 μM); 3.89% (8 μM); 65.76% (8 μM); 21.95% (8 μM); 8.40% (8 μM) | 6i: 0.77% (2 μM); 20.26% (2 μM); 72.12% (2 μM); 6.85% (2 μM); 9.33% (4 μM); 33.08% (4 μM); 44.94% (4 μM); 12.65% (4 μM); 23.51% (8 μM); 59.73% (8 μM); 12.52% (8 μM); 4.24% (8 μM) | Control: 0.36%; 7.08%; 88.34%; 4.22% | 4D: 2.62% (2 μM); 16.16% (2 μM); 73.94% (2 μM); 7.27% (2 μM); 10.30% (4 μM); 34.96% (4 μM); 47.93% (4 μM); 6.80% (4 μM); 22.79% (8 μM); 54.30% (8 μM); 17.63% (8 μM); 5.28% (8 μM) | 6u: 0.17% (2 μM); 21.64% (2 μM); 66.05% (2 μM); 12.14% (2 μM); 6.92% (4 μM); 54.01% (4 μM); 32.53% (4 μM); 6.54% (4 μM); 2.79% (8 μM); 80.73% (8 μM); 8.83% (8 μM); 7.65% (8 μM) DOUBTS OF THE COPYIST ABOUT THIS PICTURE: The quadrant percentages carry no printed measure. For each plot they are listed in the order upper left, upper right, lower left, lower right. / All quadrant percentages are printed very small and blurred, so 3, 5, 6, 8 and 9 cannot be told apart with certainty in any of them.

[2] = test system: MCF-7 (breast carcinoma) cell line; assay: MTT cytotoxicity assay, MCF-7; conditions: Homo sapiens, MCF7, 48 h, mean of three independent experiments, read-out: IC50 (μM) Mean ± SD, MCF-7
Procedure: (§1) All cell lines (A549, SGC-7901, Hela, SMMC-7721, and MCF-7) were purchased from the American Type Culture Collection (Manassas, VA, USA), and were cultured in Dulbecco’s modified Eagle’s medium (DMEM, HycloneLaboratories Inc., Logan, Utah, USA) supplemented with 10% fetal bovine serum (FBS, Gibco&Invitrogen, Carlsbad, CA, USA) at 37 °C and 5% CO2.
(§2) The cytotoxic activities of β-carboline-3-carboxylic acid derivatives were investigated by the MTT method, as previously described. Cells (1 × 10^4 cells per well) seeded into 96-well plates (JET, Guangzhou, China) were incubated with DMEM containing various concentrations (2.5, 5, 10, 20, 40, and 80 μM) of β-carbolines (4A, 4B, 4C, 4D, 6a-6f, 6g-6l, 6m-6r, and 6s-6x) for 48 h at 37 °C and 5% CO2. Then, 10 µL of 5 mg/mL MTT reagent dissolved in PBS (Phosphate buffered saline) was added per well, and plates were incubated at 37 °C for 4 h. The medium was carefully removed and 100 µL dimethyl sulfoxide (DMSO) was added to dissolve the formazan crystals. The absorbance was measured at 490 nm with a microplate reader (ThermoFisher Scientific Inc., Waltham, MA, USA). The β-carbolines were dissolved in DMSO as stock solutions (10 mM) at −20 °C, and diluted in the final experimental solution using DMEM before use. A549 (lung carcinoma), SGC-7901 (gastric carcinoma), Hela (cervical carcinoma), SMMC-7721 (liver carcinoma), and MCF-7 (breast carcinoma) cell lines were used for the antitumor activity screening. The IC50 values were the mean values of three independent experiments.

A549 cells [3] = assay: Cell cycle assay, PI single staining, flow cytometry; conditions: 48 h
Procedure: The cell cycle was determined by PI single staining. A549 cells (1 × 10^6 cells per well) seeded into 6-well plates (JET, Guangzhou, China) were incubated with DMEM containing various concentrations (2, 4, and 8 μM) of β-carbolines (4B, 6i, 4D, and 6u) for 48 h at 37 °C and 5% CO2. The cells were harvested, washed with pre-cooled PBS (4 °C), and fixed with pre-cooled 90% ethanol (4 °C). Then, the cells were incubated with 20 μL RNAse (30 μg/mL) and 20 μL PI (50 μg/mL) (Sigma Aldrich, Saint Louis, MO, USA) for 30 min at 37 °C. The samples were analyzed using flow cytometry (BD FACSCalibur, San Jose, CA, USA).
Figure 2 The cell cycle was detected by flow cytometry using PI single staining. A549 cells were treated with 4B, 6i, 4D, and 6u at 2, 4, and 8 μM for 48 h, and then stained with PI for 30 min at 37 °C. The proportions of cells containing different DNA content were analyzed by FCS Express 5.0 (De Novo Software, Thornhill, Canada).

[4] = test system: Hela (cervical carcinoma) cell line; assay: MTT cytotoxicity assay, Hela; conditions: Homo sapiens, 48 h, mean of three independent experiments, read-out: IC50 (μM) Mean ± SD, Hela
Procedure: as §1, §2

Row | Structure (SMILES) | Percentage of Cell Apoptosis (%) Late Apoptosis and Necrosis (A549 cells [1]; A549, 2 μM) | Percentage of Cell Apoptosis (%) Normal Living Cell (A549 cells [1]; A549, 2 μM) | Percentage of Cell Apoptosis (%) Early Apoptosis (A549 cells [1]; A549, 2 μM) | Percentage of Cell Apoptosis (%) Late Apoptosis and Necrosis (A549 cells [1]; A549, 4 μM) | Percentage of Cell Apoptosis (%) Normal Living Cell (A549 cells [1]; A549, 4 μM) | Percentage of Cell Apoptosis (%) Early Apoptosis (A549 cells [1]; A549, 4 μM) | Percentage of Cell Apoptosis (%) Late Apoptosis and Necrosis (A549 cells [1]; A549, 8 μM) | Percentage of Cell Apoptosis (%) Normal Living Cell (A549 cells [1]; A549, 8 μM) | Percentage of Cell Apoptosis (%) Early Apoptosis (A549 cells [1]; A549, 8 μM) | IC50 [2] | Percentage of Cell Cycles (%) G1 (A549 cells [3]; A549, 2 μM) | Percentage of Cell Cycles (%) G2/M (A549 cells [3]; A549, 2 μM) | Percentage of Cell Cycles (%) S (A549 cells [3]; A549, 2 μM) | Percentage of Cell Cycles (%) SubG1 (A549 cells [3]; A549, 2 μM) | Percentage of Cell Cycles (%) G1 (A549 cells [3]; A549, 4 μM) | Percentage of Cell Cycles (%) G2/M (A549 cells [3]; A549, 4 μM) | Percentage of Cell Cycles (%) S (A549 cells [3]; A549, 4 μM) | Percentage of Cell Cycles (%) SubG1 (A549 cells [3]; A549, 4 μM) | Percentage of Cell Cycles (%) G1 (A549 cells [3]; A549, 8 μM) | Percentage of Cell Cycles (%) G2/M (A549 cells [3]; A549, 8 μM) | further results
1 | COC(=O)c1cc2c3ccccc3n(Cc3ccccc3F)c2cn1 [Compound 4D] | 18.78% | 73.94% | 7.27% | 45.26% | 47.93% | 6.80% | 77.09% | 17.63% | 5.28% | 53.9 ± 2.02 µM | 56.89% | 18.94% | 24.17% | 6.41% | 47.21% | 35.46% | 17.33% | 39.03% | 88.01% | 0.3% | Percentage of Cell Cycles (%) S (A549 cells [3]; A549, 8 μM): 11.69%; Percentage of Cell Cycles (%) SubG1 (A549 cells [3]; A549, 8 μM): 46.29%; IC50 [4]: 26.4 ± 1.33 µM
2 | Cc1ccccc1Cn1c2ccccc2c2cc(C(=O)OCCCCCOC(=O)c3cc4c5ccccc5n(Cc5ccccc5C)c4cn3)ncc21 [Compound 6i] | 21.03% | 72.12% | 6.85% | 42.41% | 44.94% | 12.65% | 83.24% | 12.52% | 4.24% | 59.3 ± 5.86 µM | 57.38% | 10.54% | 32.08% | 6.86% | 45.19% | 42.40% | 12.41% | 26.33% | 46.64% | 0.06% | Percentage of Cell Cycles (%) S (A549 cells [3]; A549, 8 μM): 53.30%; Percentage of Cell Cycles (%) SubG1 (A549 cells [3]; A549, 8 μM): 21.32%; IC50 [4]: 9.88 ± 0.04 µM
